What was measured:
[1] = system: CL320 CHO cells; assay: Growth (VCD), viability and antibody titer of the culture with supplemented feed; format: cell-based; details: addition of 10 mg/L (so in the source)
Method: The carboxyl-terminal lysine residues of a model antibody produced by CHO cells were analyzed. […] […] On Day 5, 10 g/L cottonseed hydrolysate was added. VCD and viability were assessed, and cells were harvested on Day 10. The antibodies produced under the various conditions were evaluated for titer and C-terminal lysine by ion exchange chromatography.

[2] = system: K1 and K2 lysine residues; assay: Additional culture data: levels of K1/K2 lysine residues of the antibody produced; format: cell-based; details: included in culture media, compared to controls

| SMILES | effect on growth [1] | effect on titers [1] | effect on viability [1] | levels of K1 and K2 lysine residues [2] |
| --- | --- | --- | --- | --- |
| NCCCC[C@H](N)C(=O)O [L-Lys, L-lysine] | did not affect | did not affect | did not affect |  |
| Cl.N [NH4Cl, ammonium chloride] |  |  |  | increased |
| N=C(N)NCCC[C@H](N)C(=O)O [L-Arg, L-arginine] | did not affect | did not affect | did not affect |  |

Reference: patent US12139735B2, “Cell culture process” (Momenta Pharmaceuticals, Inc., priority 2011, dated 2024)
